Experimental data: the NIST ThermoML archive (doi:10.1016/j.jct.2014.05.016)
Numbers after ± are expanded uncertainties.

Experiment: xn = mol fraction of the nth substance listed
Conditions: 100 kPa, Liquid; for viscosity: Concentric cylinders viscometry; for mass density: Vibrating tube method

C[n+]1ccn(CCO)c1.F[B-](F)(F)F [1-(2-hydroxyethyl)-3-methylimidazolium tetrafluoroborate] + CCCC[n+]1ccccc1.F[B-](F)(F)F
Conditions	mass density [kg/m3]	viscosity [mPa·s]
293.15 K, x1 = 0.1003	1229 ± 1.1	218.7 ± 18
293.15 K, x1 = 0.2001	–	205.9 ± 17
293.15 K, x1 = 0.2004	1242.4 ± 1.1	–
293.15 K, x1 = 0.2997	–	193.9 ± 16
293.15 K, x1 = 0.3003	1255.9 ± 1.1	–
293.15 K, x1 = 0.3999	1269.7 ± 1.1	184.2 ± 15
293.15 K, x1 = 0.4996	–	176.1 ± 14
293.15 K, x1 = 0.5007	1284.2 ± 1.1	–
293.15 K, x1 = 0.5991	1298.7 ± 1.1	169.5 ± 14
293.15 K, x1 = 0.6954	1313.4 ± 1.1	–
293.15 K, x1 = 0.6997	–	164.2 ± 13
293.15 K, x1 = 0.7997	1329.9 ± 1.1	–
293.15 K, x1 = 0.7999	–	159.9 ± 13
293.15 K, x1 = 0.8996	1346.1 ± 1.1	–
293.15 K, x1 = 0.8998	–	155.4 ± 13
293.15 K, x1 = 1	1362.4 ± 1.1	153.6 ± 12
298.15 K, x1 = 0.1003	1225.5 ± 1.1	160.4 ± 13
298.15 K, x1 = 0.2001	–	151.5 ± 12
298.15 K, x1 = 0.2004	1238.9 ± 1.1	–
298.15 K, x1 = 0.2997	–	143.4 ± 12
298.15 K, x1 = 0.3003	1252.3 ± 1.1	–
298.15 K, x1 = 0.3999	1266.1 ± 1.1	136.7 ± 11
298.15 K, x1 = 0.4996	–	131.1 ± 11
298.15 K, x1 = 0.5007	1280.6 ± 1.1	–
298.15 K, x1 = 0.5991	1295.1 ± 1.1	126.4 ± 10
298.15 K, x1 = 0.6954	1309.8 ± 1.1	–
298.15 K, x1 = 0.6997	–	122.7 ± 9.9
298.15 K, x1 = 0.7997	1326.1 ± 1.1	–
298.15 K, x1 = 0.7999	–	119.5 ± 9.7
298.15 K, x1 = 0.8996	1342.3 ± 1.1	–
298.15 K, x1 = 0.8998	–	116 ± 9.4
298.15 K, x1 = 1	1358.7 ± 1.1	115.1 ± 9.3
303.15 K, x1 = 0.1003	1222 ± 1.1	120.3 ± 9.7
303.15 K, x1 = 0.2001	–	114.2 ± 9.2
303.15 K, x1 = 0.2004	1235.4 ± 1.1	–
303.15 K, x1 = 0.2997	–	108.5 ± 8.8
303.15 K, x1 = 0.3003	1248.8 ± 1.1	–
303.15 K, x1 = 0.3999	1262.5 ± 1.1	104 ± 8.4
303.15 K, x1 = 0.4996	–	99.88 ± 8.1
303.15 K, x1 = 0.5007	1277 ± 1.1	–
303.15 K, x1 = 0.5991	1291.4 ± 1.1	96.68 ± 7.8
303.15 K, x1 = 0.6954	1306.1 ± 1.1	–
303.15 K, x1 = 0.6997	–	94.02 ± 7.6
303.15 K, x1 = 0.7997	1322.4 ± 1.1	–
303.15 K, x1 = 0.7999	–	91.38 ± 7.4
303.15 K, x1 = 0.8996	1338.6 ± 1.1	–
303.15 K, x1 = 0.8998	–	88.75 ± 7.1
303.15 K, x1 = 1	1354.8 ± 1.1	87.98 ± 7.1
308.15 K, x1 = 0.1003	1218.7 ± 1.1	92.07 ± 7.4
308.15 K, x1 = 0.2001	–	87.89 ± 7.1
308.15 K, x1 = 0.2004	1231.9 ± 1.1	–
308.15 K, x1 = 0.2997	–	83.89 ± 6.8
308.15 K, x1 = 0.3003	1245.3 ± 1.1	–
308.15 K, x1 = 0.3999	1259 ± 1.1	80.56 ± 6.5
308.15 K, x1 = 0.4996	–	77.78 ± 6.2
308.15 K, x1 = 0.5007	1273.4 ± 1.1	–
308.15 K, x1 = 0.5991	1287.9 ± 1.1	75.21 ± 6
308.15 K, x1 = 0.6954	1302.4 ± 1.1	–
308.15 K, x1 = 0.6997	–	73.36 ± 5.9
308.15 K, x1 = 0.7997	1318.8 ± 1.1	–
308.15 K, x1 = 0.7999	–	71.46 ± 5.7
308.15 K, x1 = 0.8996	1334.9 ± 1.1	–
308.15 K, x1 = 0.8998	–	69.32 ± 5.6
308.15 K, x1 = 1	1351.2 ± 1.1	68.59 ± 5.5
313.15 K, x1 = 0.1003	1215.2 ± 1.1	71.96 ± 5.8
313.15 K, x1 = 0.2001	–	69.99 ± 5.6
313.15 K, x1 = 0.2004	1228.4 ± 1.1	–
313.15 K, x1 = 0.2997	–	66.1 ± 5.3
313.15 K, x1 = 0.3003	1241.8 ± 1.1	–
313.15 K, x1 = 0.3999	1255.5 ± 1.1	63.68 ± 5.1
313.15 K, x1 = 0.4996	–	61.56 ± 4.9
313.15 K, x1 = 0.5007	1269.9 ± 1.1	–
313.15 K, x1 = 0.5991	1284.4 ± 1.1	59.69 ± 4.8
313.15 K, x1 = 0.6954	1298.8 ± 1.1	–
313.15 K, x1 = 0.6997	–	58.34 ± 4.7
313.15 K, x1 = 0.7997	1315.1 ± 1.1	–
313.15 K, x1 = 0.7999	–	56.8 ± 4.5
313.15 K, x1 = 0.8996	1331.2 ± 1.1	–
313.15 K, x1 = 0.8998	–	55.18 ± 4.4
313.15 K, x1 = 1	1347.4 ± 1.1	54.81 ± 4.4
318.15 K, x1 = 0.1003	1211.8 ± 1.1	57.27 ± 4.6
318.15 K, x1 = 0.2001	–	55.12 ± 4.4
318.15 K, x1 = 0.2004	1225 ± 1.1	–
318.15 K, x1 = 0.2997	–	52.99 ± 4.2
318.15 K, x1 = 0.3003	1238.3 ± 1.1	–
318.15 K, x1 = 0.3999	1252 ± 1.1	51.21 ± 4.1
318.15 K, x1 = 0.4996	–	49.63 ± 4
318.15 K, x1 = 0.5007	1266.3 ± 1.1	–
318.15 K, x1 = 0.5991	1280.7 ± 1.1	48.25 ± 3.9
318.15 K, x1 = 0.6954	1295.2 ± 1.1	–
318.15 K, x1 = 0.6997	–	47.11 ± 3.8
318.15 K, x1 = 0.7997	1311.4 ± 1.1	–
318.15 K, x1 = 0.7999	–	45.99 ± 3.7
318.15 K, x1 = 0.8996	1327.5 ± 1.1	–
318.15 K, x1 = 0.8998	–	44.69 ± 3.6
318.15 K, x1 = 1	1343.7 ± 1.1	44.44 ± 3.6
323.15 K, x1 = 0.1003	1208.4 ± 1.1	46.31 ± 3.7
323.15 K, x1 = 0.2001	–	44.75 ± 3.6
323.15 K, x1 = 0.2004	1221.5 ± 1.1	–
323.15 K, x1 = 0.2997	–	43.16 ± 3.5
323.15 K, x1 = 0.3003	1234.8 ± 1.1	–
323.15 K, x1 = 0.3999	1248.5 ± 1.1	41.83 ± 3.4
323.15 K, x1 = 0.4996	–	40.75 ± 3.3
323.15 K, x1 = 0.5007	1262.7 ± 1.1	–
323.15 K, x1 = 0.5991	1277.1 ± 1.1	39.57 ± 3.2
323.15 K, x1 = 0.6954	1291.8 ± 1.1	–
323.15 K, x1 = 0.6997	–	38.63 ± 3.1
323.15 K, x1 = 0.7997	1307.8 ± 1.1	–
323.15 K, x1 = 0.7999	–	37.9 ± 3
323.15 K, x1 = 0.8996	1323.8 ± 1.1	–
323.15 K, x1 = 0.8998	–	36.75 ± 2.9
323.15 K, x1 = 1	1340.1 ± 1.1	36.5 ± 2.9
328.15 K, x1 = 0.1003	1205.1 ± 1.1	38.01 ± 3.1
328.15 K, x1 = 0.2001	–	36.85 ± 3
328.15 K, x1 = 0.2004	1218.1 ± 1.1	–
328.15 K, x1 = 0.2997	–	35.7 ± 2.9
328.15 K, x1 = 0.3003	1231.3 ± 1.1	–
328.15 K, x1 = 0.3999	1245 ± 1.1	34.64 ± 2.8
328.15 K, x1 = 0.4996	–	33.74 ± 2.7
328.15 K, x1 = 0.5007	1259.2 ± 1.1	–
328.15 K, x1 = 0.5991	1273.5 ± 1.1	32.9 ± 2.6
328.15 K, x1 = 0.6954	1288 ± 1.1	–
328.15 K, x1 = 0.6997	–	32.19 ± 2.6
328.15 K, x1 = 0.7997	1304.1 ± 1.1	–
328.15 K, x1 = 0.7999	–	31.58 ± 2.5
328.15 K, x1 = 0.8996	1320.2 ± 1.1	–
328.15 K, x1 = 0.8998	–	30.65 ± 2.5
328.15 K, x1 = 1	1336.4 ± 1.1	30.46 ± 2.4
333.15 K, x1 = 0.1003	1201.7 ± 1.1	31.61 ± 2.5
333.15 K, x1 = 0.2001	–	30.75 ± 2.5
333.15 K, x1 = 0.2004	1214.6 ± 1.1	–
333.15 K, x1 = 0.2997	–	29.88 ± 2.4
333.15 K, x1 = 0.3003	1227.9 ± 1.1	–
333.15 K, x1 = 0.3999	1241.5 ± 1.1	29.05 ± 2.3
333.15 K, x1 = 0.4996	–	28.35 ± 2.3
333.15 K, x1 = 0.5007	1255.7 ± 1.1	–
333.15 K, x1 = 0.5991	1270 ± 1.1	27.7 ± 2.2
333.15 K, x1 = 0.6954	1284.4 ± 1.1	–
333.15 K, x1 = 0.6997	–	27.13 ± 2.2
333.15 K, x1 = 0.7997	1300.5 ± 1.1	–
333.15 K, x1 = 0.7999	–	26.61 ± 2.1
333.15 K, x1 = 0.8996	1316.6 ± 1.1	–
333.15 K, x1 = 0.8998	–	25.87 ± 2.1
333.15 K, x1 = 1	1332.8 ± 1.1	25.73 ± 2.1
338.15 K, x1 = 0.1003	1198.3 ± 1.1	26.6 ± 2.1
338.15 K, x1 = 0.2001	–	25.96 ± 2.1
338.15 K, x1 = 0.2004	1211.2 ± 1.1	–
338.15 K, x1 = 0.2997	–	25.28 ± 2
338.15 K, x1 = 0.3003	1224.4 ± 1.1	–
338.15 K, x1 = 0.3999	1238 ± 1.1	24.64 ± 2
338.15 K, x1 = 0.4996	–	24.09 ± 1.9
338.15 K, x1 = 0.5007	1252.2 ± 1.1	–
338.15 K, x1 = 0.5991	1266.5 ± 1.1	23.58 ± 1.9
338.15 K, x1 = 0.6954	1280.9 ± 1.1	–
338.15 K, x1 = 0.6997	–	23.11 ± 1.9
338.15 K, x1 = 0.7997	1297 ± 1.1	–
338.15 K, x1 = 0.7999	–	22.69 ± 1.8
338.15 K, x1 = 0.8996	1312.9 ± 1.1	–
338.15 K, x1 = 0.8998	–	22.08 ± 1.8
338.15 K, x1 = 1	1329.2 ± 1.1	21.98 ± 1.8
343.15 K, x1 = 0.1003	1194.9 ± 1.1	22.64 ± 1.8
343.15 K, x1 = 0.2001	–	22.15 ± 1.8
343.15 K, x1 = 0.2004	1207.8 ± 1.1	–
343.15 K, x1 = 0.2997	–	21.6 ± 1.7
343.15 K, x1 = 0.3003	1221 ± 1.1	–
343.15 K, x1 = 0.3999	1234.6 ± 1.1	21.12 ± 1.7
343.15 K, x1 = 0.4996	–	20.68 ± 1.7
343.15 K, x1 = 0.5007	1248.7 ± 1.1	–
343.15 K, x1 = 0.5991	1263 ± 1.1	20.28 ± 1.6
343.15 K, x1 = 0.6954	1277.3 ± 1.1	–
343.15 K, x1 = 0.6997	–	19.9 ± 1.6
343.15 K, x1 = 0.7997	1293.4 ± 1.1	–
343.15 K, x1 = 0.7999	–	19.56 ± 1.6
343.15 K, x1 = 0.8996	1309.3 ± 1.1	–
343.15 K, x1 = 0.8998	–	19.05 ± 1.5
343.15 K, x1 = 1	1325.5 ± 1.1	18.95 ± 1.5
